This is an account of results in PubChem BioAssay (NCI).

Each structure is given as a SMILES string.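 Results reflect a 48-hour exposure of cells in 96-well plates to compound at five concentrations. GI50 = concentration required for 50% inhibition of growth. The concentration for full growth arrest is given as TGI.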

Some test systems named below: ACHN renal; CAKI-1 renal; HT29 colon; IGROV1 ovarian; LOX IMVI melanoma; M14 melanoma; NCI-H522 lung; PC-3 prostate; SK-OV-3 ovarian; TK-10 renal.
What all share (assay): NCI tumour cell line growth inhibition, 48 h

Regarding `COc1cc(/C=C2\C(=O)N(c3c(Cl)cccc3Cl)c3ccccc32)cc(OC)c1O`, the GI50 was 0.59 µM in the assay with ACHN renal; 0.455 µM in the assay with CAKI-1 renal; 2.17 µM with HT29 colon; 1.01 µM in the assay on IGROV1 ovarian; 0.303 µM with LOX IMVI melanoma; 1.03 µM in the assay with M14 melanoma. Moreover, the GI50 in the assay on NCI-H522 lung was 0.501 µM; in the assay with PC-3 prostate, 1.44 µM; in the assay with SK-OV-3 ovarian, 2.06 µM; with TK-10 renal it was 1.21 µM. Moreover, the TGI is 14.2 µM in the assay with ACHN renal; 19.1 µM in the assay with CAKI-1 renal; 8.62 µM in the assay on HT29 colon; 15 µM in the assay with IGROV1 ovarian; 4.65 µM in the assay on LOX IMVI melanoma; 15.6 µM in the assay on M14 melanoma. The TGI in the assay on NCI-H522 lung came out at 4.01 µM; in the assay with PC-3 prostate it was 27.1 µM; in the assay with SK-OV-3 ovarian it was 18.9 µM; in the assay on TK-10 renal, 15.6 µM.

Turning to `O=[N+]([O-])c1ccc(N(CCO)CCO)c2c1no[n+]2[O-]`, the GI50 in the assay with ACHN renal was 0.768 µM; in the assay with CAKI-1 renal, 0.471 µM; in the assay with HT29 colon it was 1.84 µM; with IGROV1 ovarian, 1.75 µM; with LOX IMVI melanoma it was 1.03 µM; in the assay on M14 melanoma it was 1.22 µM. Besides, the GI50 is 0.926 µM in the assay with NCI-H522 lung, 1.57 µM in the assay on PC-3 prostate, 1.21 µM with SK-OV-3 ovarian and 2.2 µM in the assay with TK-10 renal. In addition, the TGI in the assay with ACHN renal came out at 5.12 µM; in the assay with CAKI-1 renal, 2.36 µM; in the assay with HT29 colon, 10.7 µM; with IGROV1 ovarian, 7.42 µM; with LOX IMVI melanoma it was 2.43 µM; in the assay on M14 melanoma it was 2.76 µM. Moreover, the TGI in the assay on NCI-H522 lung came to 3.38 µM; with PC-3 prostate, 15.9 µM; in the assay on SK-OV-3 ovarian it was 4.14 µM; in the assay with TK-10 renal, 8.22 µM.

Take `Cc1ccnc2c1NC(=O)c1cccnc1N2C1CC1`: the GI50 with ACHN renal, with CAKI-1 renal, in the assay on HT29 colon, with IGROV1 ovarian, in the assay with LOX IMVI melanoma and in the assay with M14 melanoma was greater than 100 µM in each case. For the same compound, the GI50 with NCI-H522 lung, in the assay on PC-3 prostate, with SK-OV-3 ovarian and in the assay on TK-10 renal was greater than 100 µM in each case. In addition, the TGI with ACHN renal, in the assay on CAKI-1 renal, with HT29 colon, in the assay on IGROV1 ovarian, with LOX IMVI melanoma and with M14 melanoma was greater than 100 µM each time. Further, the TGI with NCI-H522 lung, in the assay with PC-3 prostate, in the assay with SK-OV-3 ovarian and in the assay on TK-10 renal was greater than 100 µM in each case.

`N#CC1=C(N)Oc2c(sc3c(F)cccc23)C1c1ccc([N+](=O)[O-])cc1` (stereo not given): the GI50 in the assay with ACHN renal was 0.407 µM; in the assay with CAKI-1 renal, 0.249 µM; with HT29 colon it was 0.323 µM; in the assay on IGROV1 ovarian it was 0.152 µM; in the assay on LOX IMVI melanoma, 0.133 µM; in the assay with M14 melanoma, 0.111 µM. Further, the GI50 was 0.0776 µM in the assay with NCI-H522 lung, 0.241 µM in the assay with PC-3 prostate, 0.308 µM in the assay on SK-OV-3 ovarian and 0.609 µM in the assay with TK-10 renal. Also, the TGI in the assay with ACHN renal turned out to be 2.31 µM; in the assay on CAKI-1 renal, 1.66 µM; in the assay with HT29 colon it was 1.47 µM; with IGROV1 ovarian, 1.56 µM; with LOX IMVI melanoma, 1.09 µM; with M14 melanoma, 0.645 µM. The TGI with NCI-H522 lung was 0.725 µM; with PC-3 prostate, 1.71 µM; with SK-OV-3 ovarian, 2.37 µM; with TK-10 renal, 3.12 µM.

On to `COc1ccc(/C=N/NC(=O)O)cc1`, for which the TGI with ACHN renal, in the assay on CAKI-1 renal, in the assay on HT29 colon, in the assay with IGROV1 ovarian, in the assay on LOX IMVI melanoma and with M14 melanoma was greater than 100 µM throughout. Moreover, the TGI in the assay on NCI-H522 lung, in the assay with PC-3 prostate, with SK-OV-3 ovarian and with TK-10 renal was greater than 100 µM throughout.

With `O=C1C(Nc2ccccn2)=C(I)C(=O)c2ncccc21`, the GI50 in the assay on ACHN renal is 0.403 µM; with CAKI-1 renal, 0.826 µM; in the assay on HT29 colon it was 2.75 µM; in the assay with IGROV1 ovarian, 0.741 µM; in the assay with LOX IMVI melanoma, 0.305 µM; in the assay with M14 melanoma, 1.18 µM. For the same compound, the GI50 in the assay on NCI-H522 lung was 0.725 µM; in the assay on PC-3 prostate, 1.75 µM; in the assay on SK-OV-3 ovarian it was 1.33 µM; in the assay with TK-10 renal, 1.87 µM. Besides, the TGI in the assay on ACHN renal was 4.49 µM; with CAKI-1 renal it was 2.12 µM; in the assay on HT29 colon, 8.48 µM; in the assay with IGROV1 ovarian, 2.25 µM; in the assay on LOX IMVI melanoma, 1.66 µM; with M14 melanoma, 2.6 µM. The TGI with NCI-H522 lung stood at 2.5 µM; in the assay on PC-3 prostate, 5.12 µM; in the assay on SK-OV-3 ovarian, 2.64 µM; in the assay with TK-10 renal, 3.65 µM.

As for `C[C@]12CC[C@H]3[C@@H](C[C@@H]4SC(Nc5cccc(F)c5)=N[C@@]45CC(=O)CC[C@]35C)[C@@H]1CCC2=O`, the GI50 with ACHN renal is 1.78 µM; with CAKI-1 renal, 1.99 µM; in the assay on HT29 colon it was 1.49 µM; in the assay on IGROV1 ovarian it was 1.89 µM; with LOX IMVI melanoma, 1.67 µM; in the assay on M14 melanoma it was 2.36 µM. Also, the GI50 was 1.63 µM with NCI-H522 lung, 1.88 µM with PC-3 prostate, 2.33 µM in the assay with SK-OV-3 ovarian and 1.97 µM in the assay on TK-10 renal. Also, the TGI with ACHN renal is 3.24 µM; in the assay with CAKI-1 renal, 5.73 µM; in the assay on HT29 colon, 3.51 µM; in the assay with IGROV1 ovarian it was 3.83 µM; with LOX IMVI melanoma, 3.21 µM; with M14 melanoma, 7.23 µM. The TGI in the assay with NCI-H522 lung is 3.06 µM; with PC-3 prostate, 3.87 µM; in the assay on SK-OV-3 ovarian it was 6.1 µM; with TK-10 renal, 4.15 µM.

On to `C#C[C@]1(O)CC[C@H]2[C@@H]3CC=C4c5nc(Nc6ccc(OC)cc6OC)sc5CC[C@]4(C)[C@H]3CC[C@@]21C`, for which the GI50 in the assay with ACHN renal was 2.06 µM; with CAKI-1 renal, 1.39 µM; in the assay with HT29 colon it was 1.29 µM; in the assay on IGROV1 ovarian it was 1.99 µM; in the assay on LOX IMVI melanoma it was 1.45 µM; in the assay with M14 melanoma, 1.37 µM. In addition, the GI50 was 2.22 µM in the assay with NCI-H522 lung, 0.845 µM with PC-3 prostate, 1.83 µM with SK-OV-3 ovarian and 3.9 µM in the assay on TK-10 renal. Besides, the TGI with ACHN renal came out at 10.2 µM; with CAKI-1 renal, 5.74 µM; in the assay on HT29 colon it was 6.4 µM; in the assay on IGROV1 ovarian, 7.11 µM; in the assay on LOX IMVI melanoma, 2.97 µM; in the assay with M14 melanoma, 3.53 µM. The TGI with NCI-H522 lung was 5.79 µM; with PC-3 prostate, 9.02 µM; in the assay with SK-OV-3 ovarian, 7.02 µM; in the assay on TK-10 renal it was 15.6 µM.

`O=C1c2cccc3c(N4CCN(c5ccc6c7c(cccc57)C(=O)N(CCN5CCNCC5)C6=O)CC4)ccc(c23)C(=O)N1CCN1CCNCC1`: the GI50 is 7.23 µM in the assay with ACHN renal; 14.7 µM in the assay on CAKI-1 renal; 3.91 µM in the assay on HT29 colon; 6.32 µM with IGROV1 ovarian; 6.57 µM in the assay with LOX IMVI melanoma; 15 µM in the assay on M14 melanoma. The GI50 with NCI-H522 lung was 18 µM; in the assay on PC-3 prostate, 13.5 µM; in the assay with SK-OV-3 ovarian it was 25.7 µM; in the assay on TK-10 renal, 14.7 µM. In addition, the TGI in the assay on ACHN renal is 22.5 µM; in the assay with CAKI-1 renal it was 33 µM; in the assay on HT29 colon it was greater than 100 µM; in the assay on IGROV1 ovarian, 29.4 µM; in the assay with LOX IMVI melanoma, 25.4 µM; in the assay with M14 melanoma, 37.2 µM. The TGI came out at 44.2 µM in the assay with NCI-H522 lung, 32.4 µM with PC-3 prostate, 82.9 µM in the assay with SK-OV-3 ovarian and 33.4 µM in the assay on TK-10 renal.

With `O=C(c1cccs1)c1c(C(F)(F)F)n([O-])c2cc(F)c(F)cc2[n+]1=O`, the GI50 with ACHN renal is 0.419 µM; in the assay with CAKI-1 renal, 1.25 µM; in the assay on HT29 colon, 9.5 µM; with IGROV1 ovarian it was 1.86 µM; in the assay with LOX IMVI melanoma it was 0.747 µM; in the assay on M14 melanoma, 2.48 µM. The GI50 was 1.84 µM with NCI-H522 lung, 2.62 µM in the assay with PC-3 prostate, 2.69 µM with SK-OV-3 ovarian and 1.36 µM with TK-10 renal. Besides, the TGI with ACHN renal worked out at 1.4 µM; with CAKI-1 renal, 4 µM; with HT29 colon, 50 µM; in the assay with IGROV1 ovarian it was 3.92 µM; in the assay on LOX IMVI melanoma it was 1.78 µM; in the assay with M14 melanoma it was 6.6 µM. Further, the TGI in the assay with NCI-H522 lung turned out to be 3.13 µM; with PC-3 prostate, 4.82 µM; with SK-OV-3 ovarian, 5.85 µM; in the assay on TK-10 renal it was 3.99 µM.

For the compound `N#Cc1ccc(-n2cnc(NC(=O)[C@H]3CCN(C#N)C3)c2)cc1`, the GI50 is 2.55 µM in the assay with ACHN renal; 2.48 µM in the assay on CAKI-1 renal; 1.29 µM in the assay with HT29 colon; 2.01 µM in the assay on IGROV1 ovarian; 1.27 µM in the assay with LOX IMVI melanoma; 0.757 µM in the assay with M14 melanoma. Also, the GI50 in the assay on NCI-H522 lung was 0.567 µM; in the assay with PC-3 prostate it was 2.39 µM; with SK-OV-3 ovarian, 3.77 µM; with TK-10 renal, 1.49 µM. Also, the TGI in the assay with ACHN renal is greater than 100 µM; in the assay with CAKI-1 renal, greater than 100 µM; with HT29 colon, 7.3 µM; in the assay on IGROV1 ovarian, greater than 100 µM; in the assay with LOX IMVI melanoma it was greater than 100 µM; in the assay on M14 melanoma it was 6.28 µM. Also, the TGI is 4.43 µM in the assay with NCI-H522 lung, 20.2 µM with PC-3 prostate, greater than 51.4 µM with SK-OV-3 ovarian and 7.83 µM with TK-10 renal.
